Test results: patent US8895605B2, “Pyrrolidine-substituted flavones as radio-sensitizers for use in the treatment of cancer” (Piramal Enterprises Limited, priority 2009, dated 2014)

Experiments:
[1] = test system: Head and Neck carcinoma (FaDu) xenograft; experiment: In-vivo xenograft study, growth inhibition; details: FaDu xenograft in SCID mice
Excerpt: The assay can be carried out according to the method described in Clinical Cancer Research, 2003, 9, 6052-6061; the disclosure of which is incorporated by reference for the teaching of the assay. The in-vivo studies can be carried out by using Xenograft models in Severe combined immune deficiency (SCID) mice strain-CBySmn.CB17-Prkdc^scid/J, by the method described below. The statistically significant number of mice per group (n=6) is chosen in order to be able to statistically evaluate the study data. Six to eight weeks old SCID mice were used. Head and neck cancer cells are grown in MEM medium containing 10% fetal calf serum in 5% CO2 incubator at 37° C. Cells are pelleted by centrifugation at 1000 rpm for 10 minutes. […] Body weight for all the groups is recorded for the entire period. Tumor size and other signs of toxicity (external) is recorded every day. […] Tumor growth in compound treated animals is calculated as T/C (Treated/Control)×100% and growth inhibition percent (GI %) was [100−T/C %] […] Treatment is continued for 18 days as mentioned in study design. • Tumor weight in milligram is calculated using the formula for a prolate ellipsoid: Tumor weight (mg)=Length (mm)×[Breadth (mm)^2]×0.5 • Treated to control ratio (T/C %) on a given day is calculated using the formula: [formula] […]

FaDu cell line = experiment: In-vitro clonogenic assay (Compound A alone and with radiation); format: cell-based, human; details: 3500 cells/well, 1 μM Compound A for 48 h and 96 h; colonies could not be counted

For `CN1CC[C@@H](c2c(O)cc(O)c3c(=O)cc(-c4ccccc4Cl)oc23)[C@@H]1CO.Cl` [Compound A, (+)-trans-2-(2-Chlorophenyl)-5,7-dihydroxy-8-(2-hydroxymethyl-1-methyl-pyrrolidin-3-yl)-chromen-4-one hydrochloride], the “Average % growth inhibition (% GI) with respect to control group” value ([1]; Only Compound A, 35 mpk i.p. everyday for 18 days) was 42%, the “Average % growth inhibition (% GI) with respect to control group” value ([1]; Radiation (3 Gy twice weekly, total 15 Gy) + Compound A 35 mpk i.p. everyday for 18 days) was 75% and the “Radiation response in clonogenic assay (visual)” value (FaDu cell line) was “visual enhancement in radiation response”.
